This note sets out measurements from patent US20040116420A1 (priority 2001, published 2004).

For one data set, the system named is HSV-1. Description: Antiviral activity, HSV-1 in Vero cells, plaque method. It counts as cell-based. To be noted: Human alphaherpesvirus 1, 20 hours, 90% inhibition of plaque formation. The essentials:
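HSV-1 (50,000 pfu in 2% FBS-DMEM) was added to Vero cells and removed, then the compound was applied in 2% FBS-DMEM for 20 h at 37° C, 5% CO2. After a freeze-thaw, virus yield in the medium was titred by plaque assay. EC90 is the concentration giving 90% plaque reduction versus the compound-free control.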

A further data set addresses T1, HSV-1 protease (Human herpesvirus 1, UniProt P10210).
T1 construct: 6xHis (N); made in house; host or cells: baculovirus expression system
The data set is described as follows: Enzymatic assay for HSV-1 protease (assembly) inhibitor, fluorescence polarization. The data set is classed as biochemical. The note with it: read-out: HSV-1 Enzyme inhibition IC50. The essentials:
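His6-tagged HSV-1 UL26 protease, baculovirus-expressed, preincubated 30 min at RT with compound in 1 M citrate/phosphate buffer pH 7.4 with 20% glycerol and 2 mM TCEP. A biotin-HTYLQA*SERFRIK-DTAF substrate was then cleaved for 60 min at RT, stopped with avidin, and read by fluorescence polarization versus no-inhibitor control.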

The subject of a further data set is Vero cells. The data set is described as follows: Cytotoxicity, Vero cells, Alamar Blue. The data set is classed as cell-based. The note with it: 25 μM, 20 hours. On the procedure:
An Assay Method for Cytotoxicity
The Vero cells were sown on a 96-well plate and then cultured overnight. The culture supernatant was removed, and 200 μl of 2% FBS-DMEM comprising 25 μM of the test compound was added. In this case, a substance to which 2% FBS-DMEM not comprising any test compound had been added was determined as a control. These cells were incubated in the presence of 5% CO2 at 37° C. for 20 hours. Alamar Blue (20 μl) was added to the cells, and cells were incubated for about 6 hours until the color of the control changed. The ratio of the absorbance was assayed using a microplate reader for absorption, and the value relative to the control was determined to be the ratio of living cells.
Background: Resazurin is reduced to fluorescent resorufin, in cell work by metabolically active cells.

SMILES strings stand for the structures.

Usually EC90 stands for the point of the concentration-response curve where the effect stands at 90%. Low readings indicate an effect from little substance, high ones a need for much substance. Usually IC50 stands for the point on the concentration scale where inhibition reaches its midpoint.

T1 sequence (P10210 1-247): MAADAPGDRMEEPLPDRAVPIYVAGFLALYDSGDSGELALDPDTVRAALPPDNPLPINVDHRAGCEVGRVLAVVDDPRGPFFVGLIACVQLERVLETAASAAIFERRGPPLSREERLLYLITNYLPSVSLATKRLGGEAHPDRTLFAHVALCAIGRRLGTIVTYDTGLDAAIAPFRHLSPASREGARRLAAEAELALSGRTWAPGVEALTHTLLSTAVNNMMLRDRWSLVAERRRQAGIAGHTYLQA

With `Cc1c(NC(=O)OC(C)(C)C)ccc2nc(N[C@@H](Cc3ccccc3)C(=O)N(C)CCc3ccncc3)oc(=O)c12` [Compound No.49, (5-Methyl-2-{1S-[methyl-(2-pyridin-4-yl-ethyl)-carbamoyl]-2-phenyl-ethylamino}-4-oxo-4H-benzo[d][1,3]oxazin-6-yl)-carbamic acid tert-butyl ester], in the data set with HSV-1, the EC90 is < 3.2 µM. On HSV-1 protease, the half-inhibitory concentration (IC50) was found to be 0.9 µM. Further, the “Cell viability (% of control)” value with Vero cells came to 76.0%.

As for `Cc1c(NC(=O)OC(C)(C)C)ccc2nc(N[C@@H](C)C(=O)N(C)CCc3ccncc3)oc(=O)c12` [Compound No.50, (5-Methyl-2-{1S-[methyl-(2-pyridin-4-yl-ethyl)-carbamoyl]-ethylamino}-4-oxo-4H-benzo[d][1,3]oxazin-6-yl)-carbamic acid tert-butyl ester], in the data set with HSV-1, the concentration for an effect of 90% (EC90) was < 3.2 µM. At HSV-1 protease, the 50% inhibitory concentration (IC50) turned out to be 0.9 µM. For the same molecule, the “Cell viability (% of control)” value with Vero cells worked out at 106.0%.

Regarding `Cc1c(NC(=O)OC(C)(C)C)ccc2nc(NC(C)(C)C(=O)N(C)CCc3ccncc3)oc(=O)c12` [Compound No.51, (5-Methyl-2-{1-methyl-1-[methyl-(2-pyridin-4-yl-ethyl)-carbamoyl]-ethylamino}-4-oxo-4H-benzo[d][1,3]oxazin-6-yl)-carbamic acid tert-butyl ester], the 90% effect level with HSV-1 (EC90) was put at 9.3 µM. Besides, the IC50 at HSV-1 protease came out at 0.6 µM. In the data set with Vero cells, the “Cell viability (% of control)” value was determined as 106.0%.

In turn, `Cc1c(NC(=O)OC(C)(C)C)ccc2nc(N[C@H](C(=O)N(C)CCc3ccncc3)C(C)(C)C)oc(=O)c12` [Compound No.52, (2-{2,2-Dimethyl-1S-[methyl-(2-pyridin-4-yl-ethyl)-carbamoyl]-propylamino}-5-methyl-4-oxo-4H-benzo[d][1,3]oxazin-6-yl)-carbamic acid tert-butyl ester] displayed a concentration for an effect of 90% (EC90) with HSV-1 of 6 µM. Besides, the IC50 on HSV-1 protease was found to be 49 µM. Besides, the “Cell viability (% of control)” value in the data set on Vero cells worked out at 64.5%.

On to `Cc1c(NC(=O)OC(C)(C)C)ccc2nc(N[C@H](C(=O)N(C)CCc3ccncc3)C(C)C)oc(=O)c12` [Compound No.53, (5-Methyl-2-{2-methyl-1S-[methyl-(2-pyridin-4-yl-ethyl)-carbamoyl]-propylamino}-4-oxo-4H-benzo[d][1,3]oxazin-6-yl)-carbamic acid tert-butyl ester], for which, in the data set on HSV-1, the concentration for an effect of 90% (EC90) was 6.1 µM. Further, the IC50 at HSV-1 protease worked out at 2.7 µM. Besides, in the data set on Vero cells, the “Cell viability (% of control)” value worked out at 106.0%.

Regarding `Cc1c(NC(=O)OC(C)(C)C)ccc2nc(N[C@@H](CC(C)C)C(=O)N(C)CCc3ccncc3)oc(=O)c12` [Compound No.54, (5-Methyl-2-{3-methyl-1S-[methyl-(2-pyridin-4-yl-ethyl)-carbamoyl]-butylamino}-4-oxo-4H-benzo[d][1,3]oxazin-6-yl)-carbamic acid tert-butyl ester], the 90% effect concentration (EC90) in the data set with HSV-1 was 6.2 µM. In addition, at HSV-1 protease, the half-maximal inhibitory concentration (IC50) is 1.8 µM. The “Cell viability (% of control)” value in the data set on Vero cells was determined as 62.8%.

Consider `Cc1c(NC(=O)OC(C)(C)C)ccc2nc(N[C@@H](CC3CCCCC3)C(=O)N(C)CCc3ccncc3)oc(=O)c12` [Compound No.55, (2-{2-Cyclohexyl-1S-[methyl-(2-pyridin-4-yl-ethyl)-carbamoyl]-ethylamino}-5-methyl-4-oxo-4H-benzo[d][1,3]oxazin-6-yl)-carbamic acid tert-butyl ester], for which the 90% effect level in the data set with HSV-1 (EC90) was put at 5.9 µM. Besides, the IC50 at HSV-1 protease came out at 7.4 µM. Besides, in the data set with Vero cells, the “Cell viability (% of control)” value stood at 43.8%.

Regarding `Cc1c(NC(=O)OC(C)(C)C)ccc2nc(N[C@@H](CCc3ccccc3)C(=O)N(C)CCc3ccncc3)oc(=O)c12` [Compound No.56, (5-Methyl-2-{1S-[methyl-(2-pyridin-4-yl-ethyl)-carbamoyl]-3-phenyl-propylamino}-4-oxo-4H-benzo[d][1,3]oxazin-6-yl)-carbamic acid tert-butyl ester], in the data set on HSV-1, the EC90 amounted to 3.7 µM. For the same molecule, on HSV-1 protease, the IC50 is 3.2 µM. Further, the “Cell viability (% of control)” value with Vero cells is given as 77.9%.

For `Cc1c(NC(=O)OC(C)(C)C)ccc2nc(N[C@@H](Cc3ccccc3)C(=O)N(C)Cc3ccccn3)oc(=O)c12` [Compound No.57, {5-Methyl-2-[1S-(methyl-pyridin-2-ylmethyl-carbamoyl)-2-phenyl-ethylamino]-4-oxo-4H-benzo[d][1,3]oxazin-6-yl}-carbamic acid tert-butyl ester], in the data set with HSV-1, the EC90 was < 3.2 µM. The concentration for half-maximal inhibition (IC50) at HSV-1 protease turned out to be 1.7 µM. The “Cell viability (% of control)” value in the data set with Vero cells is recorded as 71.3%.

Take `Cc1c(NC(=O)OC(C)(C)C)ccc2nc(N[C@H](C(=O)N(C)Cc3ccccn3)C(C)(C)C)oc(=O)c12` [Compound No.60, {2-[2,2-Dimethyl-1S-(methyl-pyridin-2-ylmethyl-carbamoyl)-propylamino]-5-methyl-4-oxo-4H-benzo[d][1,3]oxazin-6-yl}-carbamic acid tert-butyl ester]: in the data set with HSV-1, the EC90 worked out at 4.7 µM. Besides, on HSV-1 protease, the concentration for half-maximal inhibition (IC50) was 26.9 µM. The “Cell viability (% of control)” value with Vero cells is 89.6%.

Take `Cc1c(NC(=O)OC(C)(C)C)ccc2nc(N[C@H](C(=O)N(C)Cc3ccccn3)C(C)C)oc(=O)c12` [Compound No.61, {5-Methyl-2-[2-methyl-1S-(methyl-pyridin-2-ylmethyl-carbamoyl)-propylamino]-4-oxo-4H-benzo[d][1,3]oxazin-6-yl}-carbamic acid tert-butyl ester]: in the data set on HSV-1, it took 4.7 µM to reach the 90% level (EC90). On HSV-1 protease, the IC50 was 3.3 µM. For the same molecule, the “Cell viability (% of control)” value in the data set on Vero cells amounted to 107.0%.

Consider `Cc1c(NC(=O)OC(C)(C)C)ccc2nc(N[C@@H](CC(C)C)C(=O)N(C)Cc3ccccn3)oc(=O)c12` [Compound No.62, {5-Methyl-2-[3-methyl-1S-(methyl-pyridin-2-ylmethyl-carbamoyl)-butylamino]-4-oxo-4H-benzo[d][1,3]oxazin-6-yl}-carbamic acid tert-butyl ester], for which the concentration for an effect of 90% (EC90) in the data set on HSV-1 came to 4.7 µM. Besides, the IC50 on HSV-1 protease stood at 2.4 µM. Also, in the data set with Vero cells, the “Cell viability (% of control)” value turned out to be 83.9%.

Turning to `Cc1c(NC(=O)OC(C)(C)C)ccc2nc(N[C@@H](CC3CCCCC3)C(=O)N(C)Cc3ccccn3)oc(=O)c12` [Compound No.63, {2-[2-Cyclohexyl-1S-(methyl-pyridin-2-ylmethyl-carbamoyl)-ethylamino]-5-methyl-4-oxo-4H-benzo[d][1,3]oxazin-6-yl}-carbamic acid tert-butyl ester], in the data set on HSV-1, the EC90 is < 3.2 µM. Besides, the IC50 at HSV-1 protease came to 1.2 µM. For the same molecule, the “Cell viability (% of control)” value with Vero cells was 60.1%.

Regarding `Cc1c(NC(=O)OC(C)(C)C)ccc2nc(N[C@@H](Cc3ccccc3)C(=O)N(C)CCc3cccnc3)oc(=O)c12` [Compound No.64, (5-Methyl-2-{1S-[methyl-(2-pyridin-3-yl-ethyl)-carbamoyl]-2-phenyl-ethylamino}-4-oxo-4H-benzo[d][1,3]oxazin-6-yl)-carbamic acid tert-butyl ester], the 90% effect level in the data set with HSV-1 (EC90) was put at 5.1 µM. Also, at HSV-1 protease, the half-maximal inhibitory concentration (IC50) came out at 0.8 µM. Also, the “Cell viability (% of control)” value in the data set on Vero cells came to 70.1%.

In the data set on HSV-1, `Cc1c(NC(=O)OC(C)(C)C)ccc2nc(N[C@H](C(=O)N(C)CCc3cccnc3)C(C)(C)C)oc(=O)c12` [Compound No.66, (2-{2,2-Dimethyl-1S-[methyl-(2-pyridin-3-yl-ethyl)-carbamoyl]-propylamino}-5-methyl-4-oxo-4H-benzo[d][1,3]oxazin-6-yl)-carbamic acid tert-butyl ester] returned a concentration for an effect of 90% (EC90) of 4.6 µM. Also, at HSV-1 protease, the concentration for half-maximal inhibition (IC50) amounted to 14 µM. Moreover, in the data set with Vero cells, the “Cell viability (% of control)” value was determined as 81.5%.

`Cc1c(NC(=O)OC(C)(C)C)ccc2nc(N[C@H](C(=O)N(C)CCc3cccnc3)C(C)C)oc(=O)c12` [Compound No.67, (5-Methyl-2-{2-methyl-1S-[methyl-(2-pyridin-3-yl-ethyl)-carbamoyl]-propylamino}-4-oxo-4H-benzo[d][1,3]oxazin-6-yl)-carbamic acid tert-butyl ester]: it took 5.3 µM to reach the 90% level with HSV-1 (EC90). In addition, the half-maximal inhibitory concentration (IC50) on HSV-1 protease worked out at 1.5 µM. Further, the “Cell viability (% of control)” value with Vero cells was found to be 96.5%.

In the data set on HSV-1, `Cc1c(NC(=O)OC(C)(C)C)ccc2nc(N[C@@H](CC(C)C)C(=O)N(C)CCc3cccnc3)oc(=O)c12` [Compound No.68, (5-Methyl-2-{3-methyl-1S-[methyl-(2-pyridin-3-yl-ethyl)-carbamoyl]-butylamino}-4-oxo-4H-benzo[d][1,3]oxazin-6-yl)-carbamic acid tert-butyl ester] came in with a 90% effect concentration (EC90) of 6.1 µM. In addition, the IC50 at HSV-1 protease amounted to 2 µM. Moreover, the “Cell viability (% of control)” value in the data set with Vero cells is reported as 66.9%.

For the molecule `Cc1c(NC(=O)OC(C)(C)C)ccc2nc(N[C@@H](CC3CCCCC3)C(=O)N(C)CCc3cccnc3)oc(=O)c12` [Compound No.69, (2-{2-Cyclohexyl-1S-[methyl-(2-pyridin-3-yl-ethyl)-carbamoyl]-ethylamino}-5-methyl-4-oxo-4H-benzo[d][1,3]oxazin-6-yl)-carbamic acid tert-butyl ester], in the data set with HSV-1, the EC90 was < 3.2 µM. Besides, the 50% inhibitory concentration (IC50) at HSV-1 protease was determined as 3.6 µM. Also, the “Cell viability (% of control)” value in the data set with Vero cells amounted to 49.5%.
